Experimental data: PubChem BioAssay (NCI)
Values joined by “and” are separate entries in the source; they are usually repeats but may differ in a detail not shown here. Equal values may be shown once.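 Cells were grown in 96-well plates and exposed to each compound for 48 hours at five concentrations; endpoints were interpolated linearly between bracketing concentrations, or set to the highest concentration if not reached. GI50: concentration for 50% inhibition of growth. TGI marks complete inhibition of growth.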

Columns and labels:
Test in all cases: growth of human tumour cells (NCI), 48 h
786-0 renal = test system: 786-0 renal
ACHN renal = test system: ACHN renal
HCT-15 colon = test system: HCT-15 colon
MDA-MB-231 breast = test system: MDA-MB-231 breast
NCI-H460 lung = test system: NCI-H460 lung
NCI/ADR-RES ovarian = test system: NCI/ADR-RES ovarian
OVCAR-3 ovarian = test system: OVCAR-3 ovarian
SF-295 CNS = test system: SF-295 CNS
SK-MEL-28 melanoma = test system: SK-MEL-28 melanoma
SN12C renal = test system: SN12C renal

SMILES	GI50 (786-0 renal)	TGI (786-0 renal)	GI50 (ACHN renal)	TGI (ACHN renal)	GI50 (HCT-15 colon)	TGI (HCT-15 colon)	GI50 (MDA-MB-231 breast)	TGI (MDA-MB-231 breast)	GI50 (NCI-H460 lung)	TGI (NCI-H460 lung)	GI50 (NCI/ADR-RES ovarian)	TGI (NCI/ADR-RES ovarian)	GI50 (OVCAR-3 ovarian)	TGI (OVCAR-3 ovarian)	GI50 (SF-295 CNS)	TGI (SF-295 CNS)	GI50 (SK-MEL-28 melanoma)	TGI (SK-MEL-28 melanoma)	GI50 (SN12C renal)	TGI (SN12C renal)
Cc1cnc2oc3ccc(O)cc3c2c1-c1ccccc1	36.3 µM	> 100 µM	18.8 µM	> 100 µM	27.2 µM	> 100 µM	3.54 µM	> 100 µM	19.7 µM	> 100 µM	28.4 µM	> 100 µM	47.5 µM	> 100 µM	23.8 µM	93.2 µM	> 100 µM	> 100 µM	10 µM	47.3 µM
O=C1CC(c2ccccc2)Cc2nc3ccc(Br)cc3cc21 (stereo not drawn)	0.667 µM	> 100 µM	0.498 µM	> 100 µM	0.476 µM	> 100 µM	0.65 µM	96.3 µM	0.339 µM	13.7 µM	0.0748 µM	9.03 µM	0.304 µM	1.14 µM	0.265 µM	28.3 µM	1.34 µM	> 100 µM	0.577 µM	> 100 µM
O=C(C=P(c1ccccc1)(c1ccccc1)c1ccccc1)CCl	1.61 µM	3.56 µM	0.569 µM	1.94 µM	0.881 µM	4.21 µM	1.22 µM	3.03 µM	1.52 µM	3.6 µM	1.86 µM	10.5 µM	1.33 µM	2.68 µM	2.3 µM	7.62 µM	1.54 µM	3.55 µM	1.46 µM	4.53 µM
C#Cc1cccc(Nc2ncnc3ccc(OCCCCNCCS(C)(=O)=O)cc23)c1	7.54 µM	> 25 µM	0.945 µM	> 25 µM	7.41 µM	> 25 µM	5.11 µM	11.7 µM	10.5 µM	> 25 µM	11.4 µM	> 25 µM	6.5 µM	> 23.6 µM	8.84 µM	> 25 µM	4.58 µM	8.56 µM	5.89 µM	> 25 µM
CCOC(=O)C1=C(C)NC(=O)NC1CN1C(=O)c2ccccc2C1=O (stereo not drawn)	> 100 µM	> 100 µM	> 100 µM	> 100 µM	> 100 µM	> 100 µM	> 100 µM	> 100 µM	> 100 µM	> 100 µM	> 100 µM	> 100 µM	> 100 µM	> 100 µM	> 100 µM	> 100 µM	> 100 µM	> 100 µM	> 100 µM	> 100 µM
COc1ccc2c3c1OC1C(OC)(OC)C=C[C@@]4(Br)[C@@H](C2)N(CC2CC2)CC[C@]314 (stereo partly drawn)	–	> 100 µM	–	> 100 µM	–	> 100 µM	–	> 100 µM	–	> 100 µM	–	> 100 µM	–	> 100 µM	–	> 100 µM	–	> 100 µM	–	> 100 µM
COc1cc(/C=C2\CCC/C(=C\c3ccc(O)c(OC)c3)C2=O)ccc1O	1.67 µM	4.42 µM and 3.07 µM	1.82 µM	4.34 µM and 3.33 µM	1.49 µM	8.44 µM and 3.36 µM	2.85 µM	25.7 µM and 11.1 µM	2.05 µM	11.2 µM and 4.96 µM	2.34 µM	12.6 µM and 9.79 µM	1.56 µM	10.8 µM and 3.39 µM	1.71 µM	9.16 µM and 5.15 µM	1.68 µM	16.4 µM and 4.05 µM	1.87 µM	6.33 µM and 5.01 µM
CN(C)CC(=O)Nc1ccc2ncnc(Nc3ccc(Oc4cccc(C(F)(F)F)c4)c(Cl)c3)c2c1	1.55 µM	2.91 µM	1.13 µM	2.49 µM	1.48 µM	3.1 µM	1.54 µM	3.29 µM	1.76 µM	3.45 µM	3.06 µM	13.2 µM	1.61 µM	3.51 µM	2.02 µM	4.28 µM	1.74 µM	3.22 µM	2.85 µM	10.5 µM
COc1ccc(CCN(CC(=O)N(CC(N)=O)C2CCC[C@@H]2OCc2ccccc2)C(=O)CN(C(=O)CN(CCc2ccc(Cl)cc2)C(=O)CN(C(=O)CN(C)Cc2ccccc2F)[C@H](C)C2CCCCC2)[C@H](C)C2CCCCC2)cc1OC (stereo partly drawn)	2.14 µM	> 50 µM	2.05 µM	> 50 µM	2.77 µM	> 50 µM	2.89 µM	> 50 µM	1.94 µM	> 50 µM	> 50 µM	> 50 µM	1.82 µM	> 50 µM	1.16 µM	3.49 µM	1.89 µM	> 50 µM	2.13 µM	> 50 µM
Oc1ccc2c3c1OC1c4[nH]ncc4C[C@H]4[C@@H](C2)N(CC2CC2)CC[C@]314 (stereo partly drawn)	–	> 100 µM	–	> 100 µM	–	> 100 µM	–	> 100 µM	–	> 100 µM	–	> 100 µM	–	> 100 µM	–	> 100 µM	–	> 100 µM	–	> 100 µM
CN(C)CCCSc1ccccc1NC1=C(Cl)C(=O)C(Nc2ccccc2SCCCN(C)C)=C(Cl)C1=O	1.72 µM	3.17 µM	–	–	1.69 µM	3.32 µM	1.78 µM	3.38 µM	4.49 µM	16.3 µM	3.21 µM	18.7 µM	1.53 µM	2.89 µM	1.96 µM	3.82 µM	1.67 µM	3.12 µM	1.72 µM	3.18 µM
CC1(C)N=C(N)N=C(N)N1c1ccc(OCCCNC(=O)Nc2cccc(S(=O)(=O)F)c2)c(Cl)c1	1.11 µM	> 100 µM	15.7 µM	> 100 µM	29.2 µM	> 100 µM	7.25 µM	> 100 µM	0.511 µM	> 100 µM	> 100 µM	> 100 µM	8.12 µM	> 100 µM	5.8 µM	> 100 µM	8.79 µM	> 100 µM	–	–
Oc1c(Cl)cc(Cl)cc1/C=N/Nc1nnc(N/N=C/c2cc(Cl)cc(Cl)c2O)c2ccccc12	0.418 µM	> 100 µM	0.394 µM	> 100 µM	0.334 µM	> 100 µM	0.479 µM	> 100 µM	0.34 µM	2.26 µM	0.363 µM	> 100 µM	0.334 µM	18.2 µM	–	–	0.622 µM	> 100 µM	0.543 µM	> 100 µM
Oc1ccc2ccccc2c1N=Nc1cc(Cl)ccc1Cl	–	17 µM	–	24.7 µM	–	> 50 µM	–	27.9 µM	–	–	–	> 50 µM	–	> 50 µM	–	28.6 µM	–	> 50 µM	–	> 50 µM
